Literature values, collected in patent US20090131395A1, “BIPHENYLAZETIDINONE CHOLESTEROL ABSORPTION INHIBITORS” (MICROBIA, INC., priority 2005, published 2009).

Target: T1, ileal Na+/bile acid cotransporter (Homo sapiens, UniProt Q12908)
T1 sequence (Q12908 1-348): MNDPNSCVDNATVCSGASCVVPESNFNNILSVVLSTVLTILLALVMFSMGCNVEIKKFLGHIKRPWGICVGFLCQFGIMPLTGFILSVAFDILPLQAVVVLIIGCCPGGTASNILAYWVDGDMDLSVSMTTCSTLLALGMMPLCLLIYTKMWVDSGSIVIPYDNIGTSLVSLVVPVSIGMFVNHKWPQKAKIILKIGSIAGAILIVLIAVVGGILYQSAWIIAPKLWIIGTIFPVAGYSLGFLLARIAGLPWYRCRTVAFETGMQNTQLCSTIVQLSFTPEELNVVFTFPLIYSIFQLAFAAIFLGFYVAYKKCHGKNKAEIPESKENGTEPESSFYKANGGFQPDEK
Conditions: in vivo

SMILES: O=C1[C@H](CC[C@H](O)c2ccc(F)cc2)[C@@H](c2ccc(O)cc2)N1c1ccc(F)cc1 [ezetimibe, (3R,4S)-1-(4-fluorophenyl)-3-[(3S)-3-(4-fluorophenyl)-3-hydroxypropyl]-4-(4-hydroxyphenyl)azetidin-2-one]
- inhibition of the absorption of taurocholic acid: does not inhibit the absorption of taurocholic acid
